Here are results for seven compounds from patent US9980482B2, “Synergistic compositions with plant protection agents” (multiBIND biotec GmbH, priority 2013, dated 2018).

Assay [1] has as its system Candida parapsilosis and spores of Aspergillus niger. In words: summary of tests with Candida parapsilosis and spores of Aspergillus niger. In kind it is cell-based. On the set-up: key to synergistic effect in mixtures: + = low but significant; ++ = good; +++ = very good. The settings on record: for concentration without sufficient antimicrobial activity: conventional plant protection agent alone; for synergistic effect in mixtures: plant protection agent in mixtures (M1-M7, Table 2). As to the method: (§1) A specific in vitro test system was designed with certified tester strains from Candida parapsilosis (DSM 70125) and spores from Aspergillus niger (DSM 1957) to define antimicrobial activities and synergistic effects. In all experiments freshly grown cultures of the listed microorganisms were adjusted to a cell number of about 10^5 in a 200 μl volume of the test solutions. Test solutions are in general: a) sterile water (H2O) as a negative control, b) conventional plant protection agent alone c) specific mixtures of essential oils, detergents, metal ions and organic acids, d) a plant protection composition according to the invention.
(§2) After a residence time of 15 min. (Candida parapsilosis) or 60 min. (Aspergillus niger) at room temperature the 200 μl samples containing the microorganisms and the test solutions were diluted and were plated in dilutions of 0, 10^−1 and 10^−2 with aliquots of 10 μl each onto growth media. After an incubation period of 2-5 days at 30° C. the grown colonies were determined and documented by digital photography.

For assay [2], the system named is Candida parapsilosis (DSM 70125). In words: in vitro test of antimicrobial activity and synergistic effects on suspension cultures of Candida parapsilosis. In kind it is cell-based. Conditions: FIG. 4; for antimicrobial activities against Candida parapsilosis: agent alone at three concentrations (0.05%, 0.025%, 0.01%); for synergistic effect against Candida parapsilosis: in combination with mixture M1, all three concentrations (0.05%, 0.025%, 0.01%). The procedure: as §1, §2

With `[Cl-].[Cu+2].[Cu+2].[OH-].[OH-].[OH-]` [F7, Copperoxychlorid], in assay [1], the “concentration without sufficient antimicrobial activity” value worked out at 0.05% and the “synergistic effect in mixtures” value is recorded as “++”.
`CCNC(=O)NC(=O)/C(C#N)=N/OC` [F3, Curzate]: in assay [2], the “antimicrobial activities against Candida parapsilosis” value (from here on “antimicrobial activities”) was “do not show sufficient antimicrobial activities” and the “synergistic effect against Candida parapsilosis” value was “show synergistic effects”. For the same compound, in assay [1], the “concentration without sufficient antimicrobial activity” value came to 0.01% and the “synergistic effect in mixtures” value is listed as “+++”.
Consider `CO/C=C(/C(=O)OC)c1ccccc1Oc1cc(Oc2ccccc2C#N)ncn1` [F6, Azoxystrobin], for which, in assay [1], the “concentration without sufficient antimicrobial activity” value was found to be 0.07% and the “synergistic effect in mixtures” value was “+”.
`OC(Cc1ccccc1Cl)(Cn1nc[nH]c1=S)C1(Cl)CC1` (centres unmarked) [F2, Prothioconazole]: in assay [1], the “concentration without sufficient antimicrobial activity” value came to 0.05% and the “synergistic effect in mixtures” value is on record as “+”.
The corresponding values for `CCCOC(=O)NCCCN(C)C` [F1, Propamocarb] are 0.05% and “+”.
Consider `N#Cc1c(Cl)c(Cl)c(Cl)c(C#N)c1Cl` [F5, Chlorothalonil], for which, in assay [2], the “antimicrobial activities” value is on record as “do not show sufficient antimicrobial activities” and the “synergistic effect against Candida parapsilosis” value is “show synergistic effects”. Besides, in assay [1], the “concentration without sufficient antimicrobial activity” value is 0.05% and the “synergistic effect in mixtures” value was “++”.
As to Mancozeb [F4], in assay [2], the “antimicrobial activities” value is on record as “do not show sufficient antimicrobial activities” and the “synergistic effect against Candida parapsilosis” value is listed as “show synergistic effects”. Moreover, in assay [1], the “concentration without sufficient antimicrobial activity” value worked out at 0.05% and the “synergistic effect in mixtures” value is “+++”.
